Results published in patent publication US4908351A, “Antibiotic a 42867 derivative” (Merrell Dow Pharmaceuticals Inc., priority 1988, dated 1990).

What was measured:
Test in all cases: MIC, broth dilution test
Assay type in all cases: cell-based
[1] = tested on: Staph. aureus L 165; details: Isosensitest broth, 24 h, 37° C.
Description: Culture media and growth conditions for MIC (minimal inhibitory concentration) determinations were as follows: Isosensitest broth (Oxoid), 24 h, for staphylococci, Strep. faecalis and Gram-negative bacteria (Escherichia coli); Todd-Hewitt broth (Difco), 24 h for other streptococcal species; GC base broth (Difco) +1% Isovitalex (BBL), 48 h, CO2 -enriched atmosphere for Neisseria gonorrhoeae; Brain Heart broth (Difco) +1% Supplement C (Difco), 48 h for Haemophilus influenzae. PPLO broth with supplements as in R. T. Evans and D. Taylor-Robinson (J. Antimicrob. Chemother. 4, 57), 24 h for U. urealyticum. Incubation was at 37° C. […] The minimal inhibitory concentrations (MIC, microgram/ml) for some microorganisms are reported below in Table I.

[2] = tested on: Escherichia coli L 47 SKF 12140; details: Isosensitest broth, 24 h, 37° C.
Description: (§1) Culture media and growth conditions for MIC (minimal inhibitory concentration) determinations were as follows: Isosensitest broth (Oxoid), 24 h, for staphylococci, Strep. faecalis and Gram-negative bacteria (Escherichia coli); Todd-Hewitt broth (Difco), 24 h for other streptococcal species; GC base broth (Difco) +1% Isovitalex (BBL), 48 h, CO2 -enriched atmosphere for Neisseria gonorrhoeae; Brain Heart broth (Difco) +1% Supplement C (Difco), 48 h for Haemophilus influenzae. PPLO broth with supplements as in R. T. Evans and D. Taylor-Robinson (J. Antimicrob. Chemother. 4, 57), 24 h for U. urealyticum. Incubation was at 37° C. Inocula were as follows: about 10^4 color-changing units/ml for U. urealyticum; about 10^4 -10^5 colony-forming units/ml for other broth dilution MICs. The minimal inhibitory concentrations (MIC, microgram/ml) for some microorganisms are reported below in Table I.

[3] = tested on: Haemophilus influenzae type b L 970 ATCC 19418; details: Brain Heart broth +1% Supplement C, 48 h, 37° C.
Description: as §1

[4] = tested on: Neisseria gonorrhoeae L 997 ISM 68/126; details: GC base broth +1% Isovitalex, 48 h, CO2-enriched atmosphere, 37° C.
Description: as §1

[5] = tested on: Staph. epidermidis L 147 ATCC 12228 (coagulase negative); details: Isosensitest broth, 24 h, 37° C.
Description: as §1

[6] = tested on: Staph. haemolyticus clin isolate; details: Isosensitest broth, 24 h, 37° C.
Description: as §1

[7] = tested on: Strep. faecalis L 149 ATCC 7080; details: Isosensitest broth, 24 h, 37° C.
Description: as §1

[8] = tested on: Strep. mitis L 796 (clinical isolate); details: Todd-Hewitt broth, 24 h, 37° C.
Description: as §1

[9] = tested on: Strep. pneumoniae L 44 UC 41; details: Todd-Hewitt broth, 24 h, 37° C.
Description: as §1

[10] = tested on: Strep. pyogenes L 49 C 203; details: Todd-Hewitt broth, 24 h, 37° C.
Description: as §1

[11] = tested on: Ureaplasma urealyticum 1479 clin. isolate; details: PPLO broth with supplements, 24 h, about 10^4 color-changing units/ml, 37° C.
Description: as §1

## antibiotic A 42867 pseudoaglycon
[1]; Staph. aureus 10^6 cfu/ml
  M.I.C.: 1 microgram/ml
[1]; Staph. aureus 30% bovine serum
  M.I.C.: 2 microgram/ml
[1]; Staph. aureus L 165, 10^4 cfu/ml
  M.I.C.: 1 microgram/ml
[2]
  M.I.C.: > 128 microgram/ml
[3]
  M.I.C.: > 128 microgram/ml
[4]
  M.I.C.: 64 microgram/ml
[5]
  M.I.C.: 2 microgram/ml
[6]
  M.I.C.: 2 microgram/ml
[7]
  M.I.C.: 2 microgram/ml
[8]
  M.I.C.: 0.5 microgram/ml
[9]
  M.I.C.: 1 microgram/ml
[10]
  M.I.C.: 0.5 microgram/ml
[11]
  M.I.C.: > 128 microgram/ml
